The text below walks through data of patent US9446048B2, “Methods for treating leukemia and disorders mediated by CBFβ and RUNX1 proteins” (The United States of America, as represented by the …, priority 2011, dated 2016).

For data set [1], the system named is leukemia cells with CBF fusion genes. Put plainly: Selective cytotoxicity for CBF leukemia cell lines (ATPlite cellular ATP content). Conditions: 24 hours; for killing of leukemia cells with CBF fusion genes versus without: ATP content. Format: cell-based. Here is the method: FIG. 5 depicts the results of treating leukemia cells with or without CBF fusion genes with Ro5-3335. […] The cellular ATP content was measured by a luciferase based viability assay with −100% as 100% cell killing.
Cell lines including HeLa, HL-60, Kasumi-1, Kasumi-6, ME-1, RS4 and REH were obtained from American Type Culture Collection (ATCC, Manassas, Va.). Cells in suspension at a density of 100,000 cells/ml were grown in a T175 flask with 20% FBS RPMI-1640 medium except 20% FBS IMDM medium for HL-60 cell line and the medium was renewed every 2-3 days. The cells were centrifuged and resuspended in 10% FBS phenol free OPTI-MEM medium which were seeded at 500 cells/well in 5 uL in 1536-well white solid-bottom plates using a Multidrop Combi dispenser (ThermoFisher Scientific Inc., Waltham, Mass.). The assay plates were incubated at 37° C. with 5% CO2 and 95% humidity for 2 hours prior to compound addition. Subsequently, 23 nL/well compound DMSO solutions or DMSO controls were transferred to the assay plates using a Kalypsys pintool workstation (Kalypsys, San Diego, Calif.). The plates were then incubated at 37° C. with 5% CO2 and 95% humidity for 24 hours followed by an addition of 4 uL/well of ATPlite reagent (PerkinElmer). After a 20 minute incubation, the plates were measured in the luminescence mode using a ViewLux plate reader (Perkinelmer, Waltham, Mass.).

Another data set addresses T1, RUNX1-CBFβ binding (Homo sapiens, UniProt Q01196+Q13951).
T1 construct: The full length biotinylated RUNX1, histagged CBFβ and untagged CBFβ proteins were purchased; biotin (biotinylated); purchased Genecopoeia (Germantown, Md.); host or cells: wheat germ extract cell-free protein translation system
Put plainly: AlphaScreen high-throughput screen for blocking RUNX1-CBFβ interaction. As to conditions: HTS for RUNX1-CBFβ interaction inhibitors. The method, then:
An Amplified Luminescence Proximity Homogenous Assay (ALPHA) Screen format (PerkinElmer) was used to develop an assay for identifying compounds that affect RUNX1-CBFβ binding (see FIG. 3) optimized for high throughput screening (HTS). The full length biotinylated RUNX1, histagged CBFβ and untagged CBFβ proteins were purchased from Genecopoeia (Germantown, Md.) that were prepared in a wheat germ extract cell-free protein translation system. All three proteins were purified using an affinity column and FPLC chromatography. The assay buffer was comprised of 25 mM HEPES (pH 7.4), 110 mM KC1, 2 mM MgCl2, 10 mM NaCl, 5 mM DTT, and 0.01% Tween-20. The AlphaScreen assay platform (PerkinElmer) was applied for the measurement of interaction of Runx1 protein with the CBFb protein. The assay was developed in 384-well plate format and optimized in 1536-well plate format for high throughput screening. […] The assay plate was measured in an AlphaScreen mode using an Envision plate reader (Perkin Elmer, Waltham, Mass.). […]
Synthesized, tagged RUNX1 and CBFβ were used in the assay and a total of over 240,000 compounds at 7 concentrations each were screened with this assay. […] Confirmatory ALPHA and HTRF (homogeneous time resolved fluorescence) assays were performed to prioritize compounds for their ability to inhibit RUNX1-CBFβ interaction.

The test system of the next data set is zebrafish embryos. Put plainly: Blockage of zebrafish embryonic definitive hematopoiesis (cd41-GFP / lck-GFP transgenic embryos). Format: in vivo, zebrafish (Danio rerio). As to conditions: for numbers of cd41-GFP cells in embryos: FIG. 4C, cd41-GFP transgenic embryos; for definitive hematopoiesis in zebrafish embryos: compounds added to water at 24 hours post fertilization, cd41-GFP or lck-GFP embryos. Here is the method:
Candidate compounds were tested in a zebrafish model to determine if they specifically block RUNX1-CBFβ interaction. RUNX1 and CBFβ are required for definitive hematopoiesis during embryogenesis, since RUNX1 and CBFβ knockout mouse embryos are devoid of definitive blood cells. Thus, inhibitors of RUNX1 and CBFβ should also be able to block definitive hematopoiesis as well. Standard protocols were used to breed and raise embryos from the cd41-GFP transgenic fish in which GFP marks hematopoietic stem cells, in addition to thrombocytes during embryogenesis, and from the lck-GFP transgenic fish in which GFP marks the T lineage cells. (See Westerfield M, ed The Zebrafish Book, A guide for the laboratory use of zebrafish (Danio rerio). Edition 3 ed. Eugene, Oreg.: University of Oregon Press; 1995; Lin et al. Analysis of thrombocyte development in CD41-GFP transgenic zebrafish. Blood. Dec. 1, 2005; 106(12):3803-3810; Bertrand et al. CD41+ cmyb+ precursors colonize the zebrafish pronephros by a novel migration route to initiate adult hematopoiesis. Development. May 2008; 135(10):1853-1862; Bertrand et al. Definitive hematopoiesis initiates through a committed erythromyeloid progenitor in the zebrafish embryo. Development. December 2007; 134(23):4147-4156; Kissa et al. Live imaging of emerging hematopoietic stem cells and early thymus colonization. Blood. Feb. 1, 2008; 111(3):1147-1156; Langenau et al. In vivo tracking of T cell development, ablation, and engraftment in transgenic zebrafish. Proc Natl Acad Sci USA. May 11, 2004; 101(19):7369-7374). Compounds were added to the water at 24 hours post fertilization and the final DMSO concentrations were less than 0.1%. The embryos were then observed, photographed, and videotaped with a Leica MZ16F dissecting scope, equipped with a Leica DC500 camera and a BioVision Vision-Mac™ video system. The numbers of GFP+ cells in each embryo were counted manually.

For data set [2], the system named is CBF leukemia cells (CBFB-MYH11). Put plainly: Leukemia transplantation murine model (Cbfb-MYH11 knock-in leukemia cells). Format: in vivo, mouse. As to conditions: for leukemia burden in mice: 300 mg/kg/day in transgenic dough, similar efficacy as standard chemotherapy drugs; for survival of leukemic mice, combination with cytarabine: 300 mg/kg/p.o. days 10-40 plus cytarabine days 10-15. Here is the method: Compound Ro5-3335 was tested in a CBFβ-MYH11 knock-in mouse model that faithfully models human leukemia with this fusion gene. The mouse model is described in Castilla et al, Failure of embryonic hematopoiesis and lethal hemorrhages in mouse embryos heterozygous for a knocked-in leukemia gene CBFB-MYH11. Cell. 1996; 87(4):687-696; Castilla et al., The fusion gene Cbfb-MYH11 blocks myeloid differentiation and predisposes mice to acute myelomonocytic leukemia. Nat. Genet. October 1999; 23[2]:144-146. The CBFB-MYH11 fusion gene in this mouse model initiates leukemia development with high penetrance but variable latency. However, when the leukemia cells are transplanted, the recipient mice develop leukemia with very short, consistent latency and 100% penetrance.
The B6129F1/J mice were used for injection of leukemia cells developed in the Cbfb-MYH11 knock-in mice. The recipient mice were irradiated at 900 rads before the leukemia cells were given through retro-orbital vein injection, typically at around 250,000-500,000 cells/mouse. Ten days after leukemia cell injection, the mice were given the candidate compounds Ro5-3335 and Ro24-7429 in transgenic dough, at 300 mg/kg/day for up to 30 days. Cytarabine was given for 6 consecutive days starting on day 10 after transplantation, at 100 mg/kg/day IP, and doxorubicin was given for 4 consecutive days starting on day 10 after transplantation, at 3 mg/kg/day IP. The mice were followed by daily inspection and bi-weekly analysis of peripheral blood, which was collected by retro-orbital bleeding. Leukemia cells in the peripheral blood were evaluated by FACS analysis and by blood smear observation. Moribund mice were sacrificed and necropsy conducted to ascertain the diagnosis of terminal leukemia.

The conditions of data set [3]: was reported; cited from earlier work.

T1 sequence (Q01196 whole entry): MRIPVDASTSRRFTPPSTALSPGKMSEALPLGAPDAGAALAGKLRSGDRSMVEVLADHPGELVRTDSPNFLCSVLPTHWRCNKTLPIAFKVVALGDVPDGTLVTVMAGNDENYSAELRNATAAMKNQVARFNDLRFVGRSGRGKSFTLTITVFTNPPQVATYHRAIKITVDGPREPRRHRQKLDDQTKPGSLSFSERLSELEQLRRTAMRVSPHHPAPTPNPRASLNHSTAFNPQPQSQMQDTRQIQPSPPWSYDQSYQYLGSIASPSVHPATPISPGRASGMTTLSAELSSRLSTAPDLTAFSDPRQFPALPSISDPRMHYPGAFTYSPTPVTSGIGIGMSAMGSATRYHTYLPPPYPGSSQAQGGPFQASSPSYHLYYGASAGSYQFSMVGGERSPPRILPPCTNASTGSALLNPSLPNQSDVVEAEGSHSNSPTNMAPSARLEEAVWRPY
T1 sequence (Q13951 whole entry): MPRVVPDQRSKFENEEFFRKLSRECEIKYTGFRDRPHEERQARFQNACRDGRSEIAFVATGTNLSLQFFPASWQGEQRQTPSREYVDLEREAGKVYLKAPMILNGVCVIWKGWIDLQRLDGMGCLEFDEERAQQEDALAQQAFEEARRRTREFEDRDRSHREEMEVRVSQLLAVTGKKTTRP

Regarding `NCC(=O)Nc1ccc(Cl)cc1C(=O)c1ccc[nH]1` [MLS000766105, 2-amino-N-[4-chloro-2-(1H-pyrrole-2-carbonyl)phenyl]acetamide], in data set [1], the “killing of leukemia cells with CBF fusion genes versus without” value is recorded as “preferentially killed”. The “activity in the original screening” value at RUNX1-CBFβ binding is given as “active”. In the data set with zebrafish embryos, the “numbers of cd41-GFP cells in embryos” value is given as “reduced numbers” and the “definitive hematopoiesis in zebrafish embryos” value (shortened to “definitive hematopoiesis”) was “significant reduction”. Also, the “definitive hematopoiesis” value in the data set with zebrafish embryos (listed as J1) is on record as “reduce definitive hematopoiesis”.
As for `O=C1CN=C(c2ccc[nH]2)c2cc(Cl)ccc2N1` [Ro5-3335, 7-chloro-5-(1H-pyrrol-2-yl)-1,3,-dihydro-1,4-benzodiaepin-2-one], in data set [1], the “killing of leukemia cells with CBF fusion genes versus without” value was “preferentially killed”. The “cell killing potency for CBF leukemia cell lines relative to leukemia cell lines without CBF fusion genes” value in data set [1] (ATP content IC50 comparison) is on record as 6-50 fold. Further, in data set [2], the “leukemia burden in mice” value was “significantly reduced” and the “survival of leukemic mice, combination with cytarabine” value is listed as “synergy”. For the same molecule, the “leukemia cell burden (c-kit+ cells)” value in data set [2] (FIG. 9, 10 days after treatments started) is “reduced leukemia cell burden”. Also, in the data set with zebrafish embryos, the “numbers of cd41-GFP cells in embryos” value is recorded as “reduced numbers” and the “definitive hematopoiesis” value is “significant reduction”. The “definitive hematopoiesis” value with zebrafish embryos (listed as J2) is reported as “reduce definitive hematopoiesis”.
Regarding `CNC1=Nc2ccc(Cl)cc2C(c2ccc[nH]2)=NC1` [Ro24-7429, 7-chloro-N-methyl-5-1(1H-pyrrol-2-yl)-3H-1,4-benzodiazepin-2-amine], in data set [2], the “leukemia burden in mice” value is recorded as “significantly reduced” and the “survival of leukemic mice, combination with cytarabine” value was “trend of synergy”. Moreover, in data set [3], the “toxicological profile relative to Ro5-3335” value is listed as “improved toxicological profile”. In the data set on zebrafish embryos, the “numbers of cd41-GFP cells in embryos” value is “reduced numbers” and the “definitive hematopoiesis” value is listed as “significant reduction”. Besides, the “definitive hematopoiesis” value in the data set with zebrafish embryos (listed as J8) is given as “reduce definitive hematopoiesis”.
Take `Nc1ccn([C@@H]2O[C@H](CO)[C@@H](O)[C@@H]2O)c(=O)n1` [cytarabine, reference compound]: the “survival of leukemic mice, single agent” value in data set [2] (second experiment, cytarabine on days 10-15) is on record as “failed to extend survival”.
